Reference: BindingDB's records for doi:10.1021/bi00139a026 (University of California San Francisco, 1992)
pIC50, pKi: −log10 of the molar value.

Columns and labels:
[1] = biological target: T1, Amine oxidase [flavin-containing] A (Homo sapiens, UniProt P21397); test: Inhibiton Assay
T1 sequence (P21397 whole entry): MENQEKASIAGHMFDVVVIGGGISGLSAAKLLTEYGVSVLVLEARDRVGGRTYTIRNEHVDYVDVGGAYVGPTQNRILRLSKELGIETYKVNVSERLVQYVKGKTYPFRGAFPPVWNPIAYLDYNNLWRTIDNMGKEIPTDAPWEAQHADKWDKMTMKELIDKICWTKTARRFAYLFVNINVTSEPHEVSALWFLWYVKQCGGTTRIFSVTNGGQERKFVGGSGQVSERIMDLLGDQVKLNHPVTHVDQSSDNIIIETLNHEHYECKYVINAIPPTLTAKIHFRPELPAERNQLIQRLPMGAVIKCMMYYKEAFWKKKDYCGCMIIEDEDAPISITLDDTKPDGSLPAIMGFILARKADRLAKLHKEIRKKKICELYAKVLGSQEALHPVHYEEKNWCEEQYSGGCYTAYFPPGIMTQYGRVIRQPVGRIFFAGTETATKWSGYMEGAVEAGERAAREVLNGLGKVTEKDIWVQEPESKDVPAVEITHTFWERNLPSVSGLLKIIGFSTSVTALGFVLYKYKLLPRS
Description: (§1) Inhibition assay using MAO-A and MAO-B.

[2] = biological target: T2, Amine oxidase [flavin-containing] B (Homo sapiens, UniProt P27338); test: Inhibiton Assay
T2 sequence (P27338 whole entry): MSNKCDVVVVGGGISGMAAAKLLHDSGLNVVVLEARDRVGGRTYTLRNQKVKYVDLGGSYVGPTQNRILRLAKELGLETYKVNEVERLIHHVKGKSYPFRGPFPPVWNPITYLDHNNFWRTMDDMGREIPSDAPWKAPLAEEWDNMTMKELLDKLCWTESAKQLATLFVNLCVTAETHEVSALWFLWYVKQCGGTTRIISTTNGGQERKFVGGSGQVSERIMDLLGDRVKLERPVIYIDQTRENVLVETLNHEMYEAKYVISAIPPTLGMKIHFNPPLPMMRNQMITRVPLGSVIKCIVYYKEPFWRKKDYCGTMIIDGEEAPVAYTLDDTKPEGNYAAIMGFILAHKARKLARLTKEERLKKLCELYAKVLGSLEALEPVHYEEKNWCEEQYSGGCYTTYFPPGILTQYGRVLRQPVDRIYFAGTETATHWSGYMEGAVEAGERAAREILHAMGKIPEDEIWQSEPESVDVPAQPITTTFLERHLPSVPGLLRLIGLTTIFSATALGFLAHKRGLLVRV
Description: as §1

Row | SMILES | pKi [1] | pIC50 [2]
1 | C[n+]1ccc(CCc2ccccc2)cc1 [MPP analogue, 17] | 4.43 | 4.92
2 | C[n+]1ccc(Cc2cccc3ccccc23)cc1 [MPP analogue, 19] | 5.26 | 3.07
3 | C[n+]1ccc(Cc2ccccc2F)cc1 [MPP analogue, 18] | 4.54 | 2.70
